Like-named read-outs stand apart in the source and are kept apart here.
Tests used:
[1] = tested on: nerve cells in the CAl region of the hippocampus; assay: Protective action from delayed neuronal death (bilateral carotid ligation ischemia, residual hippocampal nerve cells); assay type: in vivo, mongolian jerbils; conditions: for inhibition of defluxion of brain nerve cells caused by ischemia: conclusion from Table 2
Experimental: Those compounds that provide protection from and suppress delayed neuronal death described in Example 18 are considered to be promising as preventive and therapeutic agents for ischemic brain disorders, brain nerve cell disorders and dementia, which are problems that the present invention is attempting to solve. The pharmacological activity of the compounds of the present invention was evaluated in the manner below using jerbils for the animal model.
A midline incision was made in mongolian having body weights of 50-70 g under ether anesthesia. Blood flow through the carotid arteries on both sides was interrupted to create an ischemic state by ligating the vessels for 5 minutes. The test compound was administered subcutaneously either 30 minutes or 1 hour prior to ligation ischemia, and the rectal temperature of the animals was controlled to 37±2° C. using a heating pad or heater starting 5 minutes before to 30 minutes after ligation ischemia. 1 week after ligation, 4% neutral buffered formalin was perfused from the heart throughout the body followed by extraction of the brain. After post-fixing the extracted brain in the same solution, the tissue was prepared into sections after embedding in paraffin. The sections were stained with hematoxylin and eosin, and the number of nerve cells in the CAl region of the hippocampus over a width of 1 mm to the left and right was counted. The total number of nerve cells on the right and left sides was then used for evaluation.

[2] = tested on: cultured nerve cells (cerebral cortex); assay: cells; assay type: cell-based, Wistar rat; conditions: Rattus norvegicus, Cerebral cortex neuron
[3] = 10 mM glutamate, 24 hours at 37° C., LDH leakage, read-out: ED50 (the source's name)

**Q.** For CN(C(=O)CCCCCc1ccccc1)[C@H]1CC[C@@]2(O)[C@H]3Cc4ccc(O)c5c4[C@@]2(CCN3CC2CC2)[C@H]1O5 [Compound 34, 17-cyclopropylmethyl-3,14β-dihydroxy-4,5α-epoxy-6α-(N-methyl-6-phenylhexanoamido)morphinan], which “inhibition of defluxion of brain nerve cells caused by ischemia” value [1] is on record?
**A.** Its value is “significantly inhibited defluxion of brain nerve cells caused by ischemia”.

**Q.** Which results are given for CC(C)CN(C(=O)Cc1ccc(Cl)c(Cl)c1)[C@H]1CC[C@@]2(O)[C@H]3Cc4ccc(O)c5c4[C@@]2(CCN3CC2CC2)[C@H]1O5 [Compound 35, 17-cyclopropylmethyl-3,14β-dihydroxy-4,5α-epoxy-6α-(N-isobutyl-3,4-dichlorophenylacetoamido)morphinan]?
**A.** No. of Residual Nerve Cells ([1]; 3 mg/kg s.c., 30 minutes before ischemia, 1 week after 5 min ligation): 203.1 ± 40.1; inhibition of defluxion of brain nerve cells caused by ischemia [1]: significantly inhibited defluxion of brain nerve cells caused by ischemia

**Q.** Which results are given for CN(C(=O)/C=C/c1cccc(C(F)(F)F)c1)[C@@H]1CC[C@@]2(O)[C@H]3Cc4ccc(O)c5c4[C@@]2(CCN3CC2CC2)[C@H]1O5 [Compound 42, 17-cyclopropylmethyl-3,14β-dihydroxy-4,5α-epoxy-6β-(N-methyl-3-trifluoromethylcinnamamido)morphinan]?
**A.** inhibition of defluxion of brain nerve cells caused by ischemia [1]: significantly inhibited defluxion of brain nerve cells caused by ischemia; EC50 [2, 3]: 1.8 µM

**Q.** Which results are given for Cc1cccc(/C=C/C(=O)N(C)[C@@H]2CC[C@@]3(O)[C@H]4Cc5ccc(O)c6c5[C@@]3(CCN4CC3CC3)[C@H]2O6)c1 [Compound 46, 17-cyclopropylmethyl-3,14β-dihydroxy-4,5α-epoxy-6β-(N-methyl-3-methylcinnamamido) morphinan]?
**A.** inhibition of defluxion of brain nerve cells caused by ischemia [1]: significantly inhibited defluxion of brain nerve cells caused by ischemia; EC50 [2, 3]: 4.42 µM

**Q.** Which “inhibition of defluxion of brain nerve cells caused by ischemia” value [1] does the source give for CN(C(=O)/C=C/c1cccc([N+](=O)[O-])c1)[C@@H]1CC[C@@]2(O)[C@H]3Cc4ccc(O)c5c4[C@@]2(CCN3CC2CC2)[C@H]1O5 [Compound 78, 17-cyclopropylmethyl-3,14β-dihydroxy-4,5α-epoxy-6β-(N-methyl-3-nitrocinnamamido)morphinan] here?
**A.** Its value is “significantly inhibited defluxion of brain nerve cells caused by ischemia”.

**Q.** For CN([C@H]1CC[C@@]2(O)[C@H]3Cc4ccc(O)c5c4[C@@]2(CCN3CC2CC2)[C@H]1O5)S(=O)(=O)Cc1ccccc1 [Compound 112, 17-cyclopropylmethyl-3,14β-dihydroxy-4,5α-epoxy-6α-(N-methyl-phenylmethanesulfonamido)morphinan], which EC50 [2, 3] is on record?
**A.** Its EC50 is 1.45 µM.

**Q.** With O=C(CCc1ccccc1)O[C@H]1CC[C@@]2(O)[C@H]3Cc4ccc(O)c5c4[C@@]2(CCN3CC2CC2)[C@H]1O5 [Compound 113, 17-cyclopropylmethyl-3,14β-dihydroxy-4,5α-epoxy-6α-(3-phenylpropionyloxy)morphinanan] as the molecule, how does the EC50 [2, 3] read?
**A.** Its EC50 is 0.53 µM.

**Q.** With CC(=O)Oc1ccc2c3c1O[C@H]1[C@H](N(C)C(=O)/C=C/c4ccccc4)CC[C@@]4(O)[C@@H](C2)N(CC2CC2)CC[C@]314 [Compound 114, 17-cyclopropylmethyl-3-acetoxy-14β-hydroxy-4,5α-epoxy-6β-(N-methylcinnamamido)morphinan] as the molecule, how does the EC50 ([2]; 24 h, read-out: ED50) read?
**A.** Its EC50 is 60.3 µM.

**Q.** With CC(=O)O[C@@]12CC[C@@H](N(C)C(=O)/C=C/c3ccccc3)[C@@H]3Oc4c(O)ccc5c4[C@@]31CCN(CC1CC1)[C@@H]2C5 [Compound 115, 17-cyclopropylmethyl-3-hydroxy-14β-acetoxy-4,5α-epoxy-6β-(N-methylcinnamamido)morphinan] as the molecule, how does the EC50 [2, 3] read?
**A.** The EC50 was 5.41 µM.

**Q.** How did the EC50 [2, 3] turn out when CN(C(=O)/C=C/c1cccc(N=C=S)c1)[C@@H]1CC[C@@]2(O)[C@H]3Cc4ccc(O)c5c4[C@@]2(CCN3CC2CC2)[C@H]1O5 [Compound 117, 17-cyclopropylmethyl-3,14β-dihydroxy-4,5α-epoxy-6β-(N-methyl-3-isothiocyanatocinnamamido)morphinan] was run?
**A.** The EC50 was 9.57 µM.

**Q.** How did the EC50 ([2]; 24 h, read-out: ED50) turn out when CN(C(=O)/C=C/c1cccc(OC(F)(F)F)c1)[C@@H]1CC[C@@]2(O)[C@H]3Cc4ccc(O)c5c4[C@@]2(CCN3CC2CC2)[C@H]1O5 [Compound 120, 17-cyclopropylmethyl-3,14β-dihydroxy-4,5α-epoxy-6β-(N-methyl-3-trifluoromethoxycinnamamido)morphinan] was run?
**A.** Its EC50 is 1.06 µM.
